Columns and labels:
in vivo = conditions: rat, 10 mg/kg
Experimental: Method: Adult male Sprague/Dawley rats (anesthetized with ethylcarbamate) were given intra-rectal aqueous microenemas. Microenemas are defined as small volume (0.3 ml) aqueous solutions containing drug/adjuvant compounds, administered with a 1 cc syringe at an intra-rectal depth of 2.5 cm. Bioavailabilities versus intravenous administration were calculated as a measure of drug delivery according to the following formula: [formula] wherein

[1] = rat, in vivo; for % Bioavailability ± SEM, Gentamicin: 90 min
Experimental: (§1) Microenemas are defined as small volume (0.3 ml) aqueous solutions containing drug/adjuvant compounds, administered with a 1 cc syringe at an intra-rectal depth of 2.5 cm.
The cefoxitin or gentamicin was administered as sodium cefoxitin or gentamicin sulfate at 10 mg/kg body weight. The adjuvants were administered at 20 mg/kg body weight and n represents the number of animals.

[2] = rat, in vivo, 10 mg/kg, 1.5 h
Experimental: as §1
AUC means area under serum drug level curve from t=0 minutes to t=90 minutes.
Gentamicin bioavailability: Concentration curves for chlorpromazine and perphenazine in rat microenema rectal delivery system.

| Compound | % Bioavailability ± SEM, Gentamicin [1] [%] | also measured |
| --- | --- | --- |
| CO[C@@]1(NC(=O)Cc2cccs2)C(=O)N2C(C(=O)O)=C(COC(N)=O)CS[C@@H]21 [Cefoxitin, (6R-cis)-3-[[(Aminocarbonyloxy]methyl]-7-methoxy-8-oxo-7-[(2-thienylacetyl))amino]-5-thia-1-azabicyclo [4.2.0]oct-2-ene-2-carboxylic acid] |  | bioavailability at 1.5 h (in vivo): 2 ± 0.6% |
| CN(C)CCCN1c2ccccc2Sc2ccc(Cl)cc21 [Chlorpromazine, chlorpromazine] | 107 ± 6.2 |  |
| OCCN1CCN(CCCN2c3ccccc3Sc3ccc(Cl)cc32)CC1 [Perphenazine, perphenazine] | 100 ± 8.3 |  |
| CN1CCN(CCCN2c3ccccc3Sc3ccc(Cl)cc32)CC1 [Prochlorperazine] | 76 ± 10.9 |  |
| CSc1ccc2c(c1)N(CCC1CCCCN1C)c1ccccc1S2 (stereo not shown) [Tiorioazine, thioridazine] | 115 ± 11.5 |  |
| Gentamicin |  | % Bioavailability ± SEM, Gentamicin (adjuvant: None) ([1]; 10 mg/kg, 1.5 h): 1 ± 0.7%; Control bioavailability (without adjuvant) [2]: 1 ± 0.7% |
